Reference: US12428406B2 (PMV Pharmaceuticals, Inc., priority 2019, dated 2025)

Molecular target: T1, p53 Y220C (Homo sapiens, UniProt P04637, Y220C)
T1 construct: The recombinant protein was a truncation mutant containing only amino acids 94-312 of p53; made in house; host or cells: E. coli
Assay: In vitro DNA binding activity assay (HTRF / TR-FRET): stabilization of p53 Y220C and increase of its DNA binding activity
Format: biochemical
Details: recombinant His-tagged p53 Y220C DNA binding domain (aa 94-312), biotin-labeled consensus DNA, incubated at 27° C. or 29° C. for 60 min
Procedure: The ability of a compound of the invention to stabilize p53 Y220C and increase the DNA binding activity of p53 Y220C was measured by a homogeneous time-resolved fluorescence (HTRF) assay. Recombinant His-tagged p53 Y220C used in the HTRF assay was expressed in the bacterium E. coli.
The binding of the recombinant His-tagged p53 Y220C protein and the biotin-labeled consensus DNA was measured using fluorescence resonance energy transfer (FRET). For the FRET assay, the binding between the p53 mutant and the DNA sequence was measured by detecting the fluorescence of the interaction between an anti-His antibody conjugated to allophycocyanin (APC) and streptavidin conjugated to europium to detect the biotin-labeled DNA.
The test compounds were prepared as 4.5 mM stock solutions in dimethyl sulfoxide (DMSO). The compounds of the disclosure were used to test the stabilization of p53 Y220C and increase in DNA binding activity of p53 Y220C. The stock solutions were then serially diluted 3-fold in DMSO, and 1.2 μL of the diluted solutions was added to each well of a 384-well polypropylene black plate.
The test and control samples were spun at 1200 rpm for 1 minute and incubated at room temperature for 15 minutes. […] The plates were spun at 1200 rpm for 1 minute and incubated at room temperature for 20 minutes. The assay signals were monitored by reading excitation at 340 nm, and emission fluorescence at 615 nm and 665 nm on a plate reader.
The percentage of activation of protein DNA binding in the presence of a compound of the invention compared to the absence of the compound was denoted by a SC150 value, which indicated the concentration of the compound required to increase the DNA binding activity by 50%. The SC150 values were calculated using either Prism™ or ActivityBase™.

T1 sequence (P04637 94-312, change not shown): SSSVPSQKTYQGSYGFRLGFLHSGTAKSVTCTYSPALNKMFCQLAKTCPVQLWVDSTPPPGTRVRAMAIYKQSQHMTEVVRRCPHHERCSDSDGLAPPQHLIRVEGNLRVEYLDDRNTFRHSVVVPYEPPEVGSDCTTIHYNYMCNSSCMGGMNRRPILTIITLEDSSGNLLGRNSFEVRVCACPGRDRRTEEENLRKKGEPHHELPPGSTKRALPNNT

Row | SC150 (concentration of the compound required to increase the DNA binding activity by 50%) | Structure (SMILES)
1 | + (+ = 0 μM ≤ SC150 < 0.05 μM) | COc1cc(S(C)(=O)=O)ccc1NCC#Cc1cc2c(N[C@H]3CCC[C@@H](N)C3)cccc2n1CC(F)(F)F (racemic) [Compound 27A, rac-(1R,3S)-N^1-(2-{3-[(4-methanesulfonyl-2-methoxyphenyl)amino]prop-1-yn-1-yl}-1-(2,2,2-trifluoroethyl)-1H-indol-4-yl)cyclohexane-1,3-diamine]
2 | + (+ = 0 μM ≤ SC150 < 0.05 μM) | COc1cc(S(C)(=O)=O)ccc1NCC#Cc1cc2c(N[C@H]3CCCC[C@H]3N)cccc2n1CC(F)(F)F (racemic) [Compound 29A, rac-(1R,2S)-N^1-(2-{3-[(4-methanesulfonyl-2-methoxyphenyl)amino]prop-1-yn-1-yl}-1-(2,2,2-trifluoroethyl)-1H-indol-4-yl)cyclo-hexane-1,2-diamine]
3 | + (+ = 0 μM ≤ SC150 < 0.05 μM) | CCC(=O)OC(C)CN1CCC(Nc2cccc3c2cc(C#CCNc2ccc(S(C)(=O)=O)cc2OC)n3CC(F)(F)F)CC1 (racemic) [Compound 590A, 1-{4-[(2-{3-[(4-methanesulfonyl-2-methoxyphenyl)amino]prop-1-yn-1-yl}-1-(2,2,2-trifluoroethyl)-1H-indol-4-yl)amino]piperidin-1-yl}propan-2-yl propanoate]
4 | + (+ = 0 μM ≤ SC150 < 0.05 μM) | COc1cc(S(C)(=O)=O)ccc1NCC#Cc1cc2c(NC3CCN(CC(C)OC(=O)C(C)C)CC3)cccc2n1CC(F)(F)F (racemic) [Compound 591A, 1-{4-[(2-{3-[(4-methanesulfonyl-2-methoxyphenyl)amino]prop-1-yn-1-yl}-1-(2,2,2-trifluoroethyl)-1H-indol-4-yl)amino]piperidin-1-yl}propan-2-yl 2-methylpropanoate]
5 | + (+ = 0 μM ≤ SC150 < 0.05 μM) | COCC(O)CN1CC[C@H](Nc2cccc3c2cc(C#CCNc2ccc(S(C)(=O)=O)cc2OC)n3CC(F)(F)F)[C@H](C)C1 (mixture of isomers) [Compound 701A, rac-1-[(3R,4R)-4-[(2-{3-[(4-methanesulfonyl-2-methoxyphenyl)amino]prop-1-yn-1-yl}-1-(2,2,2-trifluoroethyl)-1H-indol-4-yl)amino]-3-methylpiperidin-1-yl]-3-methoxypropan-2-ol]
6 | + (+ = 0 μM ≤ SC150 < 0.05 μM) | COCC(O)CN1CC[C@H](Nc2cccc3c2cc(C#CCNc2ccc(S(C)(=O)=O)cc2OC)n3CC(F)(F)F)[C@@H](C)C1 (mixture of isomers) [Compound 702A, rac-1-[(3R,4S)-4-[(2-{3-[(4-methanesulfonyl-2-methoxyphenyl)amino]prop-1-yn-1-yl}-1-(2,2,2-trifluoroethyl)-1H-indol-4-yl)amino]-3-methylpiperidin-1-yl]-3-methoxypropan-2-ol]
7 | + (+ = 0 μM ≤ SC150 < 0.05 μM) | COc1cc(S(C)(=O)=O)ccc1NCC#Cc1cc2c(N[C@H]3CN(C)CC[C@H]3O)cccc2n1CC(F)(F)F (racemic) [Compound 766A, rac-(3R,4S)-3-[(2-{3-[(4-methanesulfonyl-2-methoxyphenyl)amino]prop-1-yn-1-yl}-1-(2,2,2-trifluoroethyl)-1H-indol-4-yl)amino]-1-methylpiperidin-4-ol]
8 | + (+ = 0 μM ≤ SC150 < 0.05 μM) | COc1cc(S(C)(=O)=O)ccc1NCC#Cc1cc2c(N[C@H]3CCN(C)C[C@@H]3O)cccc2n1CC(F)(F)F (racemic) [Compound 767A, rac-(3R,4R)-4-[(2-{3-[(4-methanesulfonyl-2-methoxyphenyl)amino]prop-1-yn-1-yl}-1-(2,2,2-trifluoroethyl)-1H-indol-4-yl)amino]-1-methylpiperidin-3-ol]
9 | + (+ = 0 μM ≤ SC150 < 0.05 μM) | COc1cc(S(C)(=O)=O)ccc1NCC#Cc1cc2c(N[C@@H]3CCN(C)C[C@H]3F)cccc2n1CC(F)(F)F (racemic) [Compound 769A, (rac)-N-((3R,4R)-3-fluoro-1-methylpiperidin-4-yl)-2-(3-((2-methoxy-4-(methylsulfonyl)phenyl)amino)prop-1-yn-1-yl)-1-(2,2,2-trifluoroethyl)-1H-indol-4-amine]
10 | + (+ = 0 μM ≤ SC150 < 0.05 μM) | COC(=O)c1ccc(NCC#Cc2cc3c(N[C@H]4CCN(C)C[C@@H]4F)cccc3n2CC(F)(F)F)c(OC)c1 (racemic) [Compound 777A, rac-Methyl 4-{[3-(4-{[(3R,4R)-3-fluoro-1-methylpiperidin-4-yl]amino}-1-(2,2,2-trifluoroethyl)-1H-indol-2-yl)prop-2-yn-1-yl]amino}-3-methoxybenzoate]
11 | + (+ = 0 μM ≤ SC150 < 0.05 μM) | COC(=O)c1ccc(NCC#Cc2cc3c(N[C@H]4CCN(C)C[C@H]4F)cccc3n2CC(F)(F)F)c(OC)c1 (racemic) [Compound 778A, rac-methyl 4-{[3-(4-{[(3R,4S)-3-fluoro-1-methylpiperidin-4-yl]amino}-1-(2,2,2-trifluoroethyl)-1H-indol-2-yl)prop-2-yn-1-yl]amino}-3-methoxybenzoate]
12 | + (+ = 0 μM ≤ SC150 < 0.05 μM) | COc1cc(C(=O)O)ccc1NCC#Cc1cc2c(N[C@H]3CCN(C)C[C@H]3F)cccc2n1CC(F)(F)F (racemic) [Compound 779A, rac-4-{[3-(4-{[(3R,4S)-3-fluoro-1-methylpiperidin-4-yl]amino}-1-(2,2,2-trifluoroethyl)-1H-indol-2-yl)prop-2-yn-1-yl]amino}-3-methoxybenzoic acid]
13 | + (+ = 0 μM ≤ SC150 < 0.05 μM) | COc1cc(C(N)=O)ccc1NCC#Cc1cc2c(N[C@H]3CCN(C)C[C@H]3F)cccc2n1CC(F)(F)F (racemic) [Compound 782A, rac-4-{[3-(4-{[(3R,4S)-3-fluoro-1-methylpiperidin-4-yl]amino}-1-(2,2,2-trifluoroethyl)-1H-indol-2-yl)prop-2-yn-1-yl]amino}-3-methoxybenzamide]
14 | + (+ = 0 μM ≤ SC150 < 0.05 μM) | CNC(=O)c1ccc(NCC#Cc2cc3c(N[C@H]4CCN(C)C[C@H]4F)cccc3n2CC(F)(F)F)c(OC)c1 (racemic) [Compound 783A, 4-[3-[4-[[(3R,4S)-3-fluoro-1-methyl-4-piperidyl]amino]-1-(2,2,2-trifluoroethyl)indol-2-yl]prop-2-ynylamino]-3-methoxy-N-methyl-benzamide]
15 | + (+ = 0 μM ≤ SC150 < 0.05 μM) | CNC(=O)c1ccc(NCC#Cc2cc3c(N[C@H]4CCN(C)C[C@@H]4F)cccc3n2CC(F)(F)F)c(OC)c1 (racemic) [Compound 785A, rac-4-{[3-(4-{[(3R,4R)-3-fluoro-1-methylpiperidin-4-yl]amino}-1-(2,2,2-trifluoroethyl)-1H-indol-2-yl)prop-2-yn-1-yl]amino}-3-methoxy-N-methylbenzamide]
16 | + (+ = 0 μM ≤ SC150 < 0.05 μM) | COc1cc(S(C)(=O)=O)ccc1NCC#Cc1cc2c(N[C@H]3CCN(C(C)C)C[C@H]3F)cccc2n1CC(F)(F)F (racemic) [Compound 795A, (rac)-N-[(3R,4S)-3-fluoro-1-(propan-2-yl)piperidin-4-yl]-2-{3-[(4-methanesulfonyl-2-methoxyphenyl)amino]prop-1-yn-1-yl}-1-(2,2,2-trifluoroethyl)-1H-indol-4-amine]
17 | + (+ = 0 μM ≤ SC150 < 0.05 μM) | COc1cc(C(=O)O)ccc1NCC#Cc1cc2c(N[C@H]3CCN(C(C)C)C[C@H]3F)cccc2n1CC(F)(F)F (racemic) [Compound 796A, 4-((3-(4-(((3R,4S)-3-fluoro-1-isopropylpiperidin-4-yl)amino)-1-(2,2,2-trifluoroethyl)-1H-indol-2-yl)prop-2-yn-1-yl)amino)-3-methoxybenzoic acid]
18 | + (+ = 0 μM ≤ SC150 < 0.05 μM) | CCOC(=O)c1ccc(NCC#Cc2cc3c(N[C@H]4CCN(C(C)C)C[C@H]4F)cccc3n2CC(F)(F)F)c(OC)c1 (racemic) [Compound 797A, ethyl 4-((3-(4-(((3R,4S)-3-fluoro-1-isopropylpiperidin-4-yl)amino)-1-(2,2,2-trifluoroethyl)-1H-indol-2-yl)prop-2-yn-1-yl)amino)-3-methoxybenzoate]
19 | + (+ = 0 μM ≤ SC150 < 0.05 μM) | CCOC(=O)c1ccc(NCC#Cc2cc3c(N[C@H]4CCN(C)C[C@H]4F)cccc3n2CC(F)(F)F)c(OC)c1 (racemic) [Compound 798A, rac-ethyl 4-{[3-(4-{[(3R,4S)-3-fluoro-1-methylpiperidin-4-yl]amino}-1-(2,2,2-trifluoroethyl)-1H-indol-2-yl)prop-2-yn-1-yl]amino}-3-methoxybenzoate]
